# Laboratory results taken from patent US20060134228A1, “Medicine for prevention of and treatment for amyloidosis” (Nipro Corporation, priority 2002, published 2006).
# Biological target: T1, transthyretin purified from human serum (Homo sapiens, UniProt P02766)
# T1 construct: Using transthyretin purified from human serum as a transthyretin-containing solution; from tissue; host or cells: human serum
# Experiment: Quantitative ratio of transthyretin tetramer and transthyretin monomer (gel separation chromatography, Coomassie stain)
# Assay type: biochemical
# Settings: metal chloride 80 μg/mL, transthyretin 0.2 mg/mL, incubated at 37° C.
# Method: Using transthyretin purified from human serum as a transthyretin-containing solution, the purity thereof was confirmed by electrophoresis. The transthyretin-containing solution (10 mg/mL) was dissolved in a buffer solution to obtain a concentration of 0.2 mg/mL, and chromium chloride (80 μg/mL) was added. The pH of the buffer solution was adjusted to a pH necessary for each experiment using sodium hydroxide or hydrochloric acid. The above-described solution was incubated at 37° C. to produce amyloid fiber.
# The transthyretin tetramer and the transthyretin monomer were separated by gel separation chromatography, immersed in the Coomassie Brilliant Blue stain, and examined for color developing intensity. Likewise, measurements were conducted for a comparative example wherein the metal compound added to the solution for incubation was changed from chromium chloride to aluminum chloride, and for a control not formulated with chromium chloride. Also, another test was conducted in the same manner, except that the metal compound added to the solution for incubation was replaced with 80 μg/mL chromium chloride and 80 μg/mL aluminum chloride (chromium chloride and aluminum chloride coexisted). Measurement results of fluorescence intensity and the quantitative ratio of the transthyretin tetramer and the transthyretin monomer are shown in FIG. 1.
SMILES,decomposition from the transthyretin tetramer to the transthyretin monomer,decomposition from the transthyretin tetramer to the transthyretin monomer (listed as aluminum)
"[Cl][Cr]([Cl])[Cl] [trivalent chromium ion, chromium chloride]",inhibit the reaction of decomposing the transthyretin tetramer to produce the monomer,
"[Cl][Al]([Cl])[Cl] [aluminum ion, aluminum chloride]",promote the reaction of decomposing the transthyretin tetramer to the monomer,promote the decomposition
